From patent publication US4476120A, “Thiolic derivatives of erythromycin having therapeutic activity, and pharmaceutical compositions containing them” (Sigma Tau Indistrie Farmaceutiche Riunites, p.A, priority 1982, dated 1984)
≈ marks a conversion by molar mass, not a printed value. Where a name gives a salt, the structure may show the parent alone. Read-outs that look alike come from different tables or passages of the source.

Columns and labels:
H. influentiae SS 02 = type: cell-based; details: Brain Heart Infusion, estolate and RV11-RV15 previously hydrolized, unit assumed
Staph. aureus SS 09 = type: cell-based; details: Brain Heart Infusion, estolate and RV11-RV15 previously hydrolized, unit assumed
Citrobacter SS 05 = type: cell-based; details: Brain Heart Infusion, estolate and RV11-RV15 previously hydrolized, unit assumed
Kl. aerogenes SS 71 = type: cell-based; details: Brain Heart Infusion, estolate and RV11-RV15 previously hydrolized, unit assumed
Citrobacter SS 09 = type: cell-based; details: Brain Heart Infusion, estolate and RV11-RV15 previously hydrolized, unit assumed
N. meningitidis SS 04 = type: cell-based; details: Brain Heart Infusion, estolate and RV11-RV15 previously hydrolized, unit assumed
E. coli SS 04 = type: cell-based; details: Brain Heart Infusion, estolate and RV11-RV15 previously hydrolized, unit assumed
Cl. tetani SS 17 = type: cell-based; details: Brain Heart Infusion, estolate and RV11-RV15 previously hydrolized, unit assumed
B. subtilis ATCC 6633 = type: cell-based; details: Brain Heart Infusion, estolate and RV11-RV15 previously hydrolized, unit assumed
S. infantis SS 08 = type: cell-based; details: Brain Heart Infusion, estolate and RV11-RV15 previously hydrolized, unit assumed
Acute toxicity = type: in vivo; details: mouse, in vivo
Experimental: The acute toxicity was assessed in Swiss white mice by oral and intravenous route. The LD50 values have been calculated by the methods of Probits, starting from the mortality recorded 10 days after the treatment.

E. coli SS 06 = type: cell-based; details: Brain Heart Infusion, estolate and RV11-RV15 previously hydrolized, unit assumed
[1] = in vivo; for Hematic levels in the rat: po, 100 mg/kg
Ps. aeruginosa SS 10 = type: cell-based; details: Brain Heart Infusion, estolate and RV11-RV15 previously hydrolized, unit assumed
B. cereus ATCC 11778 = type: cell-based; details: Brain Heart Infusion, estolate and RV11-RV15 previously hydrolized, unit assumed
Staph. albus SS 03 = type: cell-based; details: Brain Heart Infusion, estolate and RV11-RV15 previously hydrolized, unit assumed
Staph. albus SS 04 = type: cell-based; details: Brain Heart Infusion, estolate and RV11-RV15 previously hydrolized, unit assumed
Staph. aureus SS 07 [2] = type: cell-based; details: Brain Heart Infusion, estolate and RV11-RV15 previously hydrolized, unit assumed
C. diphtheriae SS 19 = type: cell-based; details: Brain Heart Infusion, estolate and RV11-RV15 previously hydrolized, unit assumed
Br. abortus SS 7 = type: cell-based; details: Brain Heart Infusion, estolate and RV11-RV15 previously hydrolized, unit assumed
Sr. marcescens SS 03 = type: cell-based; details: Brain Heart Infusion, estolate and RV11-RV15 previously hydrolized, unit assumed
Br. melitensis SS 19 = type: cell-based; details: unit assumed
D. pneumoniae SS 23 [3] = type: cell-based; details: Brain Heart Infusion, estolate and RV11-RV15 previously hydrolized, unit assumed
[4] = Mucolytic activity: obstruction of the bronchial tract after SO2 inhalation; type: in vivo, Sprague Dawley male rats; details: SO2, 15 days
[5] = Histological examination of bronchi after SO2 inhalation; type: in vivo, Sprague Dawley male rats
Staph. aureus SS 08 = type: cell-based; details: Brain Heart Infusion, estolate and RV11-RV15 previously hydrolized, unit assumed
Strept. faecalis SS 19 = type: cell-based; details: Brain Heart Infusion, estolate and RV11-RV15 previously hydrolized, unit assumed
E. coli SS 05 = type: cell-based; details: Brain Heart Infusion, estolate and RV11-RV15 previously hydrolized, unit assumed
Pr. mirabilis SS 09 = type: cell-based; details: Brain Heart Infusion, estolate and RV11-RV15 previously hydrolized, unit assumed
B. subtilis SS 127 = type: cell-based; details: Brain Heart Infusion, estolate and RV11-RV15 previously hydrolized, unit assumed
[6] = test system: Strept. haemolyticus SS 18; type: cell-based; details: Brain Heart Infusion, estolate and RV11-RV15 previously hydrolized, unit assumed
B. anthranis SS 08 = type: cell-based; details: Brain Heart Infusion, estolate and RV11-RV15 previously hydrolized, unit assumed
B. anthranis SS 09 = type: cell-based; details: B. anthranis SS 09 (14 bis); Brain Heart Infusion; estolate and RV11-RV15 previously hydrolized; unit assumed
[7] = test system: Strept. haemolyticus SS 17; type: cell-based; details: Brain Heart Infusion, estolate and RV11-RV15 previously hydrolized, unit assumed
E. coli SS 07 = type: cell-based; details: Brain Heart Infusion, estolate and RV11-RV15 previously hydrolized, unit assumed
S. heidelberg SS 18 = type: cell-based; details: Brain Heart Infusion, estolate and RV11-RV15 previously hydrolized, unit assumed
Pr. vulgaris SS 10 = type: cell-based; details: Brain Heart Infusion, estolate and RV11-RV15 previously hydrolized, unit assumed
E. aerogenes SS 011 = type: cell-based; details: Brain Heart Infusion, estolate and RV11-RV15 previously hydrolized, unit assumed
S. lutea ATCC 9341 = type: cell-based; details: Brain Heart Infusion, estolate and RV11-RV15 previously hydrolized, unit assumed
N. gonorreae SS 27 = type: cell-based; details: Brain Heart Infusion, estolate and RV11-RV15 previously hydrolized, unit assumed
[8] = Hematic levels in the healthy volunteer; type: in vivo, healthy volunteers; details: oral, 500 mg of erythromycin, average
Text: For the dosing, the microbiological method using a B. subtilis strain was adopted.

D. pneumoniae SS 23 [9] = assay: Experimental infection induced by D. pneumoniae SS 23; type: in vivo, Swiss white mice
Experimental: (§1) Swiss white mice of 20 g body weight were used, infected by parenteral administration of lethal amounts of pathogenic […] of Staph. aureus SS 07 and D. pneumoniae SS 23.
(§2) The antibiotics were administered at the time of injecting the infecting germ and 6 and 24 hours later. On the basis of the survival after 7 days, the ED50 values were determined, as reported in the following table II and III, wherein the reliability limits are indicated in brackets.

E. cloacae SS 07 = type: cell-based; details: Brain Heart Infusion, estolate and RV11-RV15 previously hydrolized, unit assumed
H. pertussis SS 03 = type: cell-based; details: Brain Heart Infusion, estolate and RV11-RV15 previously hydrolized, unit assumed
H. tubercolosis SS 03 = type: cell-based; details: Brain Heart Infusion, estolate and RV11-RV15 previously hydrolized, unit assumed
Text: (§3) In the following table I the MIC/ml values are indicated corresponding to the lowest concentration capable of inducing a complete inhibition of the bacterial development.

Kl. pneumoniae SS 04 = type: cell-based; details: Brain Heart Infusion, estolate and RV11-RV15 previously hydrolized, unit assumed
Text: as §3

C. albicans SS 04 = type: cell-based; details: Brain Heart Infusion, estolate and RV11-RV15 previously hydrolized, unit assumed
Staph. aureus SS 07 [10] = assay: Experimental infection induced by Staph. aureus SS 07; type: in vivo, Swiss white mice; details: Staphylococcus aureus, SS07, in Mus musculus, sc, 168 h, read-out: ED50 (reliability limits)
Experimental: as §1, §2

CCC(=O)O[C@H]1[C@H](O[C@@H]2[C@@H](C)[C@H](O[C@H]3C[C@@](C)(OC)[C@@H](O)[C@H](C)O3)[C@@H](C)C(=O)O[C@H](CC)[C@@](C)(O)[C@H](O)[C@@H](C)C(=O)[C@H](C)C[C@@]2(C)O)O[C@H](C)C[C@@H]1N(C)C [RV14, erythromycin-monopropionate-S-carboxymethyl cysteinate]
MIC (H. influentiae SS 02): 1.5 µg/mL (≈ 1.9 µM)
MIC (Staph. aureus SS 09): 0.1 µg/mL (≈ 0.127 µM)
MIC (Citrobacter SS 05): > 200 µg/mL
MIC (Kl. aerogenes SS 71): 100 µg/mL (≈ 127 µM)
MIC (Citrobacter SS 09): > 200 µg/mL
MIC (N. meningitidis SS 04): 0.8 µg/mL (≈ 1.01 µM)
MIC (E. coli SS 04): 100 µg/mL (≈ 127 µM)
MIC (Cl. tetani SS 17): 0.2 µg/mL (≈ 0.253 µM)
MIC (B. subtilis ATCC 6633): 0.025 µg/mL (≈ 0.0316 µM)
MIC (S. infantis SS 08): 100 µg/mL (≈ 127 µM)
LD50 (reliability limits) (Acute toxicity; po, 14400 min): 3000 mg·kg
MIC (E. coli SS 06): 25 µg/mL (≈ 31.6 µM)
Hematic levels in the rat ([1]; 0.3 h): 0.72 µg/mL
Hematic levels in the rat ([1]; 1 h): 1.85 µg/mL
Hematic levels in the rat ([1]; 2 h): 2.55 µg/mL
Hematic levels in the rat ([1]; 3 h): 1.39 µg/mL
Hematic levels in the rat ([1]; 4 h): 0.65 µg/mL
Hematic levels in the rat ([1]; 5 h): 0.54 µg/mL
Hematic levels in the rat ([1]; 6 h): 0.07 µg/mL
absorption by oral route (in words) ([1]; rat): absorbed by oral route in a rate practically analogous to that of erythromycin estolate
MIC (Ps. aeruginosa SS 10): 100 µg/mL (≈ 127 µM)
MIC (B. cereus ATCC 11778): 0.4 µg/mL (≈ 0.506 µM)
MIC (Staph. albus SS 03): 0.1 µg/mL (≈ 0.127 µM)
MIC (Staph. albus SS 04): 0.05 µg/mL (≈ 0.0633 µM)
MIC (Staph. aureus SS 07 [2]): 0.025 µg/mL (≈ 0.0316 µM)
MIC (C. diphtheriae SS 19): 0.01 µg/mL (≈ 0.0127 µM)
MIC (Br. abortus SS 7): 12 µg/mL (≈ 15.2 µM)
MIC (Sr. marcescens SS 03): 200 µg/mL (≈ 253 µM)
MIC (Br. melitensis SS 19): 3 µg/mL (≈ 3.8 µM)
MIC (D. pneumoniae SS 23 [3]): 0.05 µg/mL (≈ 0.0633 µM)
Partial obstruction (% incidence) ([4]; oral, 500 mg/kg): 13.33%
Total obstruction, compact plug (% incidence) ([4]; oral, 500 mg/kg): 26.66%
Total obstruction, nodular mass (% incidence) ([4]; oral, 500 mg/kg): 6.66%
Total obstruction, pimply mass (% incidence) ([4]; oral, 500 mg/kg): 6.66%
histological appearance of non obstructed bronchi ([5]; oral, 500 mg/kg, free non obstructed): presence of bronchi having almost normal appearance
histological appearance of obstructed bronchial tract ([5]; oral, 500 mg/kg): fully like that of the control animals
MIC (Staph. aureus SS 08): 0.05 µg/mL (≈ 0.0633 µM)
MIC (Strept. faecalis SS 19): 0.05 µg/mL (≈ 0.0633 µM)
MIC (E. coli SS 05): 50 µg/mL (≈ 63.3 µM)
MIC (Pr. mirabilis SS 09): > 200 µg/mL
MIC (B. subtilis SS 127): 0.05 µg/mL (≈ 0.0633 µM)
MIC [6]: 0.8 µg/mL (≈ 1.01 µM)
MIC (B. anthranis SS 08): 0.4 µg/mL (≈ 0.506 µM)
MIC (B. anthranis SS 09): 0.8 µg/mL (≈ 1.01 µM)
MIC [7]: 1.5 µg/mL (≈ 1.9 µM)
MIC (E. coli SS 07): 50 µg/mL (≈ 63.3 µM)
MIC (S. heidelberg SS 18): 100 µg/mL (≈ 127 µM)
MIC (Pr. vulgaris SS 10): > 200 µg/mL
MIC (E. aerogenes SS 011): 50 µg/mL (≈ 63.3 µM)
MIC (S. lutea ATCC 9341): 0.01 µg/mL (≈ 0.0127 µM)
MIC (N. gonorreae SS 27): 0.8 µg/mL (≈ 1.01 µM)
Hematic levels in the healthy volunteer ([8]; 0.30 hours, 18 min): 1.20 µg/mL
Hematic levels in the healthy volunteer ([8]; 1 hour, 60 min): 1.78 µg/mL
Hematic levels in the healthy volunteer ([8]; 2 hours, 120 min): 2.28 µg/mL
Hematic levels in the healthy volunteer ([8]; 3 hours, 180 min): 1.60 µg/mL
Hematic levels in the healthy volunteer ([8]; 4 hours, 240 min): 1.21 µg/mL
ED50 (reliability limits) (D. pneumoniae SS 23 [9]; os, D. pneumoniae SS 23, mg/kg of erythromycin, survival after 7 days, 10080 min): 123.74 (148.77-102.92) mg/kg
MIC (E. cloacae SS 07): > 200 µg/mL
MIC (H. pertussis SS 03): 0.4 µg/mL (≈ 0.506 µM)
MIC (H. tubercolosis SS 03): 50 µg/mL (≈ 63.3 µM)
MIC (Kl. pneumoniae SS 04): 100 µg/mL (≈ 127 µM)
MIC (C. albicans SS 04): 200 µg/mL (≈ 253 µM)

CCOC(=O)CCC(=O)O[C@H]1[C@H](O[C@@H]2[C@@H](C)[C@H](O[C@H]3C[C@@](C)(OC)[C@@H](O)[C@H](C)O3)[C@@H](C)C(=O)O[C@H](CC)[C@@](C)(O)[C@H](O)[C@@H](C)C(=O)[C@H](C)C[C@@]2(C)O)O[C@H](C)C[C@@H]1N(C)C [erythromycin ethyl succinate, reference compound]
ED50 (Staph. aureus SS 07 [10]): 1.03 mg/kg
Partial obstruction (% incidence) ([4]; i.m., 250 mg/kg): 20%
Total obstruction, compact plug (% incidence) ([4]; i.m., 250 mg/kg): 53.33%
Total obstruction, nodular mass (% incidence) ([4]; i.m., 250 mg/kg): 26.66%
Total obstruction, pimply mass (% incidence) ([4]; i.m., 250 mg/kg): 13.33%
bronchial epithelium reaction ([5]; i.m., 250 mg/kg): the bronchial epithelium reacts through a proliferation of cells, mainly cup-shaped cells
histological appearance of obstructed bronchial tract ([5]; i.m., 250 mg/kg): the bronchial obstruction is formed by abundant mucus admixed with fibrin
ED50 (D. pneumoniae SS 23 [9]; Streptococcus pneumoniae, SS23, in Mus musculus, sc, 168 h, read-out: ED50 (reliability limits)): 54.2 mg/kg

CC[C@H]1OC(=O)[C@H](C)[C@@H](O[C@H]2C[C@@](C)(OC)[C@@H](O)[C@H](C)O2)[C@H](C)[C@@H](O[C@@H]2O[C@H](C)C[C@H](N(C)C)[C@H]2O)[C@](C)(O)C[C@@H](C)C(=O)[C@H](C)[C@@H](O)[C@]1(C)O [erythromycin hydrochloride, reference compound]
LD50 at 240 h (Acute toxicity; iv, mortality 10 days after treatment, mice, read-out: LD50 (reliability limits)): 377 mg/kg
